{"source": "paper PMC4912623", "about": "“A CD36 ectodomain mediates insect pheromone detection via a putative tunnelling mechanism” (Nature Communications, 2016)", "biological_target": "T1, OR67d/ORCO (Drosophila melanogaster, UniProt Q9VT92)", "T1 construct": "endogenous receptor in OR67d olfactory neurons in vivo (wild type, or snmp1 null rescued with transgenic SNMP1); with Odorant receptor coreceptor; Sensory neuron membrane protein 1", "T1 sequence (Q9VT92 whole entry)": "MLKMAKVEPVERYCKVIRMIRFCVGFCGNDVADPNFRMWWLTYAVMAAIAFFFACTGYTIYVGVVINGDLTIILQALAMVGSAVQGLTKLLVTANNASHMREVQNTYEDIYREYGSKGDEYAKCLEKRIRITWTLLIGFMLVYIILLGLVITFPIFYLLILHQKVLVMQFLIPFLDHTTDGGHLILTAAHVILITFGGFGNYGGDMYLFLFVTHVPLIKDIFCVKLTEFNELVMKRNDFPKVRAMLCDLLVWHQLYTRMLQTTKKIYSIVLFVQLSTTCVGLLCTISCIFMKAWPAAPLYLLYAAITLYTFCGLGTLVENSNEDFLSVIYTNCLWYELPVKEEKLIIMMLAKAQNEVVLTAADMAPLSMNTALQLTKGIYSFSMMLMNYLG", "T1 sequence (Q9VNB5 whole entry partner)": "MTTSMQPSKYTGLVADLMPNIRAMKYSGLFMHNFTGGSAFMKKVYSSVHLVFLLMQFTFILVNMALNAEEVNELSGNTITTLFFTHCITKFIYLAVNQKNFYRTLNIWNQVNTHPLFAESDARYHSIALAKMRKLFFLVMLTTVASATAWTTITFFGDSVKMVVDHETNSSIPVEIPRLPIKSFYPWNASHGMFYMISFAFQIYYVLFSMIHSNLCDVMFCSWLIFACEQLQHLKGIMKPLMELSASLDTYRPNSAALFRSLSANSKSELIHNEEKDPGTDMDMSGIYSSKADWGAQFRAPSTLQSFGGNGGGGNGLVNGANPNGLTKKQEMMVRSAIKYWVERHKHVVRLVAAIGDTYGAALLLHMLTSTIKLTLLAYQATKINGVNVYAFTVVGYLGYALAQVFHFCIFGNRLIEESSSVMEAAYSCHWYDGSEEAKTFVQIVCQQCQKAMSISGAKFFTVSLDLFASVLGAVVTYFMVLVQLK", "T1 sequence (Q9VDD3 whole entry partner)": "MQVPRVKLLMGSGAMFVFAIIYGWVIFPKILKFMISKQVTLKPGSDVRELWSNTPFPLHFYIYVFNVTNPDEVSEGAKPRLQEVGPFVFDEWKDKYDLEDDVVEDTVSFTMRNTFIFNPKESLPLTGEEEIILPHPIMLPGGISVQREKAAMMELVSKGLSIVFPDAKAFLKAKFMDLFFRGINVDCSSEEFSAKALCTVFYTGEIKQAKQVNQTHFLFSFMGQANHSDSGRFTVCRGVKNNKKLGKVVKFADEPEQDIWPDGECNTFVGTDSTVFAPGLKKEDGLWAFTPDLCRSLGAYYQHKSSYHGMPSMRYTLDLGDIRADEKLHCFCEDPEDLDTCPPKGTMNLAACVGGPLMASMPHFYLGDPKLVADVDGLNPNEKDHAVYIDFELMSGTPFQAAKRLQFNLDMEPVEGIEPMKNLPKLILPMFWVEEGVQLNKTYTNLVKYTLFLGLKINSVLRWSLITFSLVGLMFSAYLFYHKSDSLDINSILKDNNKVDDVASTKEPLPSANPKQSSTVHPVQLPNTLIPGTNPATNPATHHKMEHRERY", "test": "single sensillum electrophysiology in flies", "type": "cell-based", "settings": "v/v dilutions in paraffin oil, airstream"}
{"compound": "CCCCCC/C=C\\CCCCCCCCCCOC(C)=O", "note": "[cVA, (Z)-11-octadecenyl acetate]", "values": [{"measurement": "spikes/s", "value": "Concentration–response curves of OR67d neurons to cVA in the indicated rescue genotypes"}]}
